The values below come from US6471976B1, “Copper complex bactericide/fungicide and method of making same” (priority 1990, dated 2002).

For the assay, the system named is Colletotrichum lagenarium. Description: Efficacy against Colletotrichum lagenarium on cucumber plants. To be noted: in vivo.

Turning to `[Cu]` [copper], the “estimated LD90 rate for the control of Colletotrichum lagenarium on cucumber plants” value is reported as 200 ppm.
